Experimental data reported in the OligoGym collection.
HELM strings list units from the 5' end as sugar, base in round brackets, then linkage (d deoxyribose, r ribose, m 2'-O-methyl, p phosphodiester). Strings are as the collection lists them; they lack the last nucleoside at the 3' end of the tested compound. [moe] = 2'-O-(2-methoxyethyl) (MOE); [sp] = phosphorothioate linkage; [m5C] = 5-methylcytosine

Each substance was assayed against SCN2A (assay: mouse, dose not given). Details: ASO.

Substance	3 h FOB score [score 0-7]
RNA1{[moe](A)[sp].[moe](T)p.[moe]([m5C])p.[moe](A)p.d(T)[sp].d(G)[sp].d([m5C])[sp].d(A)[sp].d(T)[sp].d(A)[sp].d(A)[sp].d(T)[sp].d([m5C])[sp].d([m5C])[sp].[moe]([m5C])p.[moe](A)p.[moe](T)p.[moe](T)[sp].[moe](A)}$$$$ (last 3' nucleoside missing)	1
RNA1{[moe](A)[sp].[moe](T)p.[moe]([m5C])p.[moe](A)p.d([m5C])[sp].d(T)[sp].d(T)[sp].d(T)[sp].d([m5C])[sp].d(A)[sp].d(T)[sp].d([m5C])[sp].d([m5C])[sp].d(A)[sp].[moe]([m5C])p.[moe](G)p.[moe](A)p.[moe]([m5C])[sp].[moe](A)}$$$$ (last 3' nucleoside missing)	1
RNA1{[moe](A)[sp].[moe](T)p.[moe]([m5C])p.[moe](G)p.[moe](A)p.d(T)[sp].d(T)[sp].d([m5C])[sp].d([m5C])[sp].d(T)[sp].d(T)[sp].d(T)[sp].d([m5C])[sp].d(T)[sp].d(G)[sp].[moe]([m5C])p.[moe](A)p.[moe](T)[sp].[moe]([m5C])}$$$$ (last 3' nucleoside missing)	1
RNA1{[moe](A)[sp].[moe]([m5C])p.[moe](A)p.[moe](T)p.[moe](A)p.[moe](T)p.d(T)[sp].d(T)[sp].d(T)[sp].d(T)[sp].d([m5C])[sp].d(T)[sp].d(A)[sp].d([m5C])[sp].d(A)[sp].d([m5C])[sp].[moe](T)p.[moe](G)[sp].[moe]([m5C])}$$$$ (last 3' nucleoside missing)	0
RNA1{[moe](A)[sp].[moe]([m5C])p.[moe](A)p.[moe](T)p.[moe](A)p.d(T)[sp].d(T)[sp].d(T)[sp].d(T)[sp].d(T)[sp].d([m5C])[sp].d(T)[sp].d(A)[sp].d([m5C])[sp].d(A)[sp].[moe]([m5C])p.[moe](T)p.[moe](G)[sp].[moe]([m5C])}$$$$ (last 3' nucleoside missing)	0
RNA1{[moe](A)[sp].[moe]([m5C])p.[moe](A)p.[moe](T)p.d(A)[sp].d(T)[sp].d(T)[sp].d(T)[sp].d(T)[sp].d(T)[sp].d([m5C])[sp].d(T)[sp].d(A)[sp].d([m5C])[sp].[moe](A)p.[moe]([m5C])p.[moe](T)p.[moe](G)[sp].[moe]([m5C])}$$$$ (last 3' nucleoside missing)	0.33
RNA1{[moe](A)[sp].[moe]([m5C])p.[moe](G)p.[moe](A)p.[moe]([m5C])p.[moe](A)p.d(T)[sp].d(A)[sp].d(T)[sp].d(T)[sp].d(T)[sp].d(T)[sp].d(T)[sp].d([m5C])[sp].d(T)[sp].d(A)[sp].[moe]([m5C])p.[moe](A)[sp].[moe]([m5C])}$$$$ (last 3' nucleoside missing)	0
RNA1{[moe](A)[sp].[moe]([m5C])p.[moe](G)p.[moe](A)p.[moe]([m5C])p.d(A)[sp].d(T)[sp].d(A)[sp].d(T)[sp].d(T)[sp].d(T)[sp].d(T)[sp].d(T)[sp].d([m5C])[sp].d(T)[sp].[moe](A)p.[moe]([m5C])p.[moe](A)[sp].[moe]([m5C])}$$$$ (last 3' nucleoside missing)	0
RNA1{[moe](A)[sp].[moe]([m5C])p.[moe](G)p.[moe](A)p.d([m5C])[sp].d(A)[sp].d(T)[sp].d(A)[sp].d(T)[sp].d(T)[sp].d(T)[sp].d(T)[sp].d(T)[sp].d([m5C])[sp].[moe](T)p.[moe](A)p.[moe]([m5C])p.[moe](A)[sp].[moe]([m5C])}$$$$ (last 3' nucleoside missing)	0
RNA1{[moe](A)[sp].[moe]([m5C])p.[moe](T)p.[moe](G)p.[moe](G)p.d([m5C])[sp].d(T)[sp].d(A)[sp].d(T)[sp].d(A)[sp].d([m5C])[sp].d(T)[sp].d([m5C])[sp].d(A)[sp].d(T)[sp].[moe](T)p.[moe](G)p.[moe]([m5C])[sp].[moe](T)}$$$$ (last 3' nucleoside missing)	1.33
RNA1{[moe](A)[sp].[moe]([m5C])p.[moe]([m5C])p.[moe](A)p.[moe]([m5C])p.[moe](G)p.d([m5C])[sp].d(T)[sp].d(T)[sp].d(A)[sp].d([m5C])[sp].d(A)[sp].d(T)[sp].d([m5C])[sp].d(A)[sp].d(A)[sp].[moe](A)p.[moe]([m5C])[sp].[moe](A)}$$$$ (last 3' nucleoside missing)	0
RNA1{[moe](A)[sp].[moe]([m5C])p.[moe]([m5C])p.[moe](A)p.[moe]([m5C])p.d(G)[sp].d([m5C])[sp].d(T)[sp].d(T)[sp].d(A)[sp].d([m5C])[sp].d(A)[sp].d(T)[sp].d([m5C])[sp].d(A)[sp].[moe](A)p.[moe](A)p.[moe]([m5C])[sp].[moe](A)}$$$$ (last 3' nucleoside missing)	0.33
RNA1{[moe](A)[sp].[moe]([m5C])p.[moe]([m5C])p.[moe](A)p.d([m5C])[sp].d(G)[sp].d([m5C])[sp].d(T)[sp].d(T)[sp].d(A)[sp].d([m5C])[sp].d(A)[sp].d(T)[sp].d([m5C])[sp].[moe](A)p.[moe](A)p.[moe](A)p.[moe]([m5C])[sp].[moe](A)}$$$$ (last 3' nucleoside missing)	0
RNA1{[moe](A)[sp].[moe]([m5C])p.[moe]([m5C])p.[moe](G)p.[moe](A)p.[moe](A)p.d(T)[sp].d(T)[sp].d([m5C])[sp].d(T)[sp].d(A)[sp].d(T)[sp].d(T)[sp].d(T)[sp].d(T)[sp].d(A)[sp].[moe](T)p.[moe](A)[sp].[moe](A)}$$$$ (last 3' nucleoside missing)	1.67
RNA1{[moe](A)[sp].[moe]([m5C])p.[moe]([m5C])p.[moe](G)p.[moe](A)p.d(A)[sp].d(T)[sp].d(T)[sp].d([m5C])[sp].d(T)[sp].d(A)[sp].d(T)[sp].d(T)[sp].d(T)[sp].d(T)[sp].[moe](A)p.[moe](T)p.[moe](A)[sp].[moe](A)}$$$$ (last 3' nucleoside missing)	1.67
RNA1{[moe](A)[sp].[moe]([m5C])p.[moe]([m5C])p.[moe](G)p.[moe](T)p.d([m5C])[sp].d(T)[sp].d([m5C])[sp].d(T)[sp].d(T)[sp].d(T)[sp].d([m5C])[sp].d(T)[sp].d(T)[sp].d(A)[sp].[moe](T)p.[moe](T)p.[moe](T)[sp].[moe]([m5C])}$$$$ (last 3' nucleoside missing)	7
RNA1{[moe](A)[sp].[moe]([m5C])p.[moe]([m5C])p.[moe]([m5C])p.[moe](A)[sp].d(G)[sp].d(T)[sp].d(T)[sp].d(T)[sp].d(T)[sp].d(T)[sp].d(T)[sp].d([m5C])[sp].[moe](A)p.[moe](T)p.[moe](T)[sp].[moe](G)}$$$$ (last 3' nucleoside missing)	1.33
RNA1{[moe](A)[sp].[moe]([m5C])p.[moe]([m5C])p.[moe]([m5C])p.[moe](A)p.[moe](G)[sp].d(T)[sp].d(T)[sp].d(T)[sp].d(T)[sp].d(T)[sp].d(T)[sp].d([m5C])[sp].d(A)[sp].[moe](T)p.[moe](T)[sp].[moe](G)}$$$$ (last 3' nucleoside missing)	2
